Measurements from patent US9040529B2 (Vichem Chemie Kutató Kft., priority 2009, dated 2015).

Target: T1, human CDK9/CyclinT kinase complex (Homo sapiens, UniProt P50750)
T1 construct: purchased Proqinase 0371-0345-1
Assay: In vitro CDK9/CyclinT assay (IMAP fluorescence polarization kinase assay)
Assay type: biochemical
Conditions: not given
Method: In Vitro CDK9/CyclinT Assay
The activity of the compounds described in the present invention can be determined by the following kinase assay, which measures the phosphorylation of a fluorescently-labeled peptide by human CDK9/CyclinT kinase complex by fluorescent polarization using a commercially available IMAP Screening Express Assay Kit (Molecular devices).
CDK9 kinase assays were performed in low protein binding 384-well plates (Corning 3676). Test compounds were diluted in 100% DMSO to 5 mM stock concentration, then further dilutions were made in H2O or 100% DMSO to desirable concentrations.
Each reaction consisted of 5 nM enzyme: CDK9/CyclinT (Proqinase cat#0371-0345-1), 400 nM TAMRA-Rbtide (synthetic 15-mer peptide derived from human retinoblastoma tumor suppressor protein labelled with TAMRA dye, Genecust Europe), 12 μM ATP (=Kmapp, Sigma-Aldrich) and kinase buffer: 20 mM MOPS pH 7 (Sigma-Aldrich), 1 mM DTT (Sigma-Aldrich), 10 mM MgCl2 (Sigma-Aldrich), 0.01% Tween 20 (Sigma-Aldrich).
For each reaction, 4 or 6 μl containing TAMRA-Rbtide, ATP and kianse buffer were combined with 2 μl diluted compound in H2O or 0.028 μl compound in 100% DMSO. The kinase reaction was started by the addition of 2 μl diluted enzyme. The reaction was allowed to run for 1 hours at room temperature. The reaction was stopped by adding 15 μl IMAP beads (1:400 beads in progressive (100% buffer A) 1× buffer). After an additional 1 hours, fluorescent polarization (Ex: 550-10 nm, Em: 590-10 nm, Dich: 561 nm) was measured using an Analyst GT (Molecular devices).

T1 sequence (P50750 whole entry): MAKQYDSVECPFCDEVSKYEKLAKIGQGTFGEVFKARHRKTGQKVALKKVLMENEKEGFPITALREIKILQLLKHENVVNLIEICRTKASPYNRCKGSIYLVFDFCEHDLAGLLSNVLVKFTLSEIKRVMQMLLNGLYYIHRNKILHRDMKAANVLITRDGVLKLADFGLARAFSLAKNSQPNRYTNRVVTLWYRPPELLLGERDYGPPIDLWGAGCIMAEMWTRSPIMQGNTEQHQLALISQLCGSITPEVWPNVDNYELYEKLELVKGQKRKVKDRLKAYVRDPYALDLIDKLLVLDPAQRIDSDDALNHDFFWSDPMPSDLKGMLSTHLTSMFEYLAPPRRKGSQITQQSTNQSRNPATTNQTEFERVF
T1 sequence (O60563 whole entry partner): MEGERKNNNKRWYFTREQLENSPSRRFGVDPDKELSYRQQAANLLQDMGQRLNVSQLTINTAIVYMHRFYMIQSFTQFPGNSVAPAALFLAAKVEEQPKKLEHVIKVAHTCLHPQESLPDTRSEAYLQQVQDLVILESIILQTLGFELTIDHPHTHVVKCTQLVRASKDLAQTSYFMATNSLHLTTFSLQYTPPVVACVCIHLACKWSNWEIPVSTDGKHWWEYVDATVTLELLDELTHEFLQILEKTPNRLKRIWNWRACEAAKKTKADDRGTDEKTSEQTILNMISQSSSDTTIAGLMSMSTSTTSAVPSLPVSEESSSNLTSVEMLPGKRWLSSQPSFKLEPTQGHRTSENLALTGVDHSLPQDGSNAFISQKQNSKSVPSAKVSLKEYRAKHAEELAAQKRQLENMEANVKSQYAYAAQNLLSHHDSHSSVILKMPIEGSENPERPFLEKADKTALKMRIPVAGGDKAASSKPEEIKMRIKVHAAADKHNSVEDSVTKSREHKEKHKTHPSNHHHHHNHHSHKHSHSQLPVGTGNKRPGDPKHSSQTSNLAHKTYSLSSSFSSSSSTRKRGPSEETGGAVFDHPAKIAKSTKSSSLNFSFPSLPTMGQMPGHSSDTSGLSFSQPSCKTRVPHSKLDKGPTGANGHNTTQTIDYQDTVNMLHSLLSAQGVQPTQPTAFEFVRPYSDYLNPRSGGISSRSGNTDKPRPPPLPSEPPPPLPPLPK

| CDK9 inhibitory effect | Structure (SMILES) |
| --- | --- |
| nanomolar or low nanomolar range | COc1ccccc1-c1cc(Nc2cccc(CNS(C)(=O)=O)c2)ncn1 [Example 6, N-{3-[6-(2-Methoxy-phenyl)-pyrimidin-4-ylamino]-benzyl}-methanesulfonamide] |
| nanomolar or low nanomolar range | CC(C)Oc1cc(F)ccc1-c1cc(Nc2ccc(CNS(C)(=O)=O)cc2)ncn1 [Example 48, N-{4-[6-(4-Fluoro-2-isopropoxy-phenyl)-pyrimidin-4-ylamino]-benzyl}-methanesulfonamide] |
| nanomolar or low nanomolar range | COc1cc(F)ccc1-c1cc(Nc2ccc(CNS(C)(=O)=O)cc2)ncn1 [Example 39, N-{4-[6-(4-Fluoro-2-methoxy-phenyl)-pyrimidin-4-ylamino]-benzyl}-methanesulfonamide] |
| nanomolar or low nanomolar range | COc1cccc(F)c1-c1cc(Nc2cccc(CNS(C)(=O)=O)c2)ncn1 [Example 13, N-{3-[6-(2-Fluoro-6-methoxy-phenyl)-pyrimidin-4-ylamino]-benzyl}-methanesulfonamide] |
| nanomolar or low nanomolar range | COc1ccccc1-c1cc(Nc2cccc(CN3C(=O)c4ccccc4C3=O)c2)ncn1 [Example 68, 2-{3-[6-(2-Methoxy-phenyl)-pyrimidin-4-ylamino]-benzyl}-isoindole-1,3-dione] |
| nanomolar or low nanomolar range | CCOc1ccccc1-c1cc(Nc2ccc(CNS(C)(=O)=O)cc2)ncn1 [Example 37, N-{4-[6-(2-Ethoxy-phenyl)-pyrimidin-4-ylamino]-benzyl}-methanesulfonamide] |

Same assay, conditions: 5 nM CDK9/CyclinT, 400 nM TAMRA-Rbtide, 12 μM ATP, 1 hour at room temperature; read-out: CDK9 inhibitory range

| IC50 [µM] | Structure (SMILES) |
| --- | --- |
| < 1 | COc1cc(Cl)ccc1-c1cc(Nc2cccc(CNS(C)(=O)=O)c2)ncn1 [Example 25, N-{3-[6-(4-Chloro-2-methoxy-phenyl)-pyrimidin-4-ylamino]-benzyl}-methanesulfonamide] |
| < 1 | CS(=O)(=O)NCc1ccc(Nc2cc(-c3ccccc3OCc3ccc(F)cc3)ncn2)cc1 [Example 36, N-(4-{6-[2-(4-Fluoro-benzyloxy)-phenyl]-pyrimidin-4-ylamino}-benzyl)-methanesulfonamide] |
| < 1 | COc1cccc(-c2cc(Nc3cccc(CNS(C)(=O)=O)c3)ncn2)c1OC [Example 23, N-{3-[6-(2,3-Dimethoxy-phenyl)-pyrimidin-4-ylamino]-benzyl}-methanesulfonamide] |
| < 0.1 | COc1ccccc1-c1cc(Nc2cccc(CNS(C)(=O)=O)c2)ncn1 [Example 6, N-{3-[6-(2-Methoxy-phenyl)-pyrimidin-4-ylamino]-benzyl}-methanesulfonamide] |
| < 10 | COc1ccccc1-c1cc(Nc2cccc(Cn3c(CN4CCOCC4)nc4ccccc43)c2)ncn1 [Example 93, [6-(2-Methoxy-phenyl)-pyrimidin-4-yl]-[3-(2-morpholin-4-ylmethyl-benzoimidazol-1-ylmethyl)-phenyl]-amine] |
| > 10 | CS(=O)(=O)NCc1ccc(Nc2cc(-c3ccc(F)cc3F)ncn2)cc1 [Example 42, N-{4-[6-(2,4-Difluoro-phenyl)-pyrimidin-4-ylamino]-benzyl}-methanesulfonamide] |
| < 10 | COc1cc(F)ccc1-c1cc(Nc2cccc(Cn3c(CN4CCOCC4)nc4ccccc43)c2)ncn1 [Example 94, [6-(4-Fluoro-2-methoxy-phenyl)-pyrimidin-4-yl]-[3-(2-morpholin-4-ylmethyl-benzoimidazol-1-ylmethyl)-phenyl]-amine] |
| > 10 | CS(=O)(=O)NCc1ccc(Nc2cc(-c3cn[nH]c3)ncn2)cc1 [Example 58, N-{4-[6-(1H-Pyrazol-4-yl)-pyrimidin-4-ylamino]-benzyl}-methanesulfonamide] |
| < 1 | CS(=O)(=O)NCc1cccc(Nc2cc(-c3ccccc3OCc3ccccc3)ncn2)c1 [Example 2, N-{3-[6-(2-Benzyloxy-phenyl)-pyrimidin-4-ylamino]-benzyl}-methanesulfonamide] |
| < 1 | COc1ccccc1-c1cc(Nc2ccc(CNS(C)(=O)=O)cc2)ncn1 [Example 34, N-{4-[6-(2-Methoxy-phenyl)-pyrimidin-4-ylamino]-benzyl}-methanesulfonamide] |
| < 1 | COc1ccccc1-c1cc(Nc2cccc(CNC(=O)c3ccc(F)cc3)c2)ncn1 [Example 84, 4-Fluoro-N-{3-[6-(2-methoxy-phenyl)-pyrimidin-4-ylamino]-benzyl}-benzamide] |
| < 0.1 | CC(C)Oc1cc(F)ccc1-c1cc(Nc2ccc(CNS(C)(=O)=O)cc2)ncn1 [Example 48, N-{4-[6-(4-Fluoro-2-isopropoxy-phenyl)-pyrimidin-4-ylamino]-benzyl}-methanesulfonamide] |
| < 10 | CS(=O)(=O)NCc1cccc(Nc2cc(-c3ccc(F)cc3F)ncn2)c1 [Example 17, N-{3-[6-(2,4-Difluoro-phenyl)-pyrimidin-4-ylamino]-benzyl}-methanesulfonamide] |
| < 10 | Clc1cc(Nc2cccc(Cn3cnc4ccccc43)c2)ncn1 [Example 63, (3-Benzoimidazol-1-ylmethyl-phenyl)-(6-chloro-pyrimidin-4-yl)-amine] |
| < 0.1 | COc1cc(F)ccc1-c1cc(Nc2ccc(CNS(C)(=O)=O)cc2)ncn1 [Example 39, N-{4-[6-(4-Fluoro-2-methoxy-phenyl)-pyrimidin-4-ylamino]-benzyl}-methanesulfonamide] |
| < 10 | COc1ccccc1-c1cc(Nc2cccc(CNC(=O)Nc3ccc(F)cc3)c2)ncn1 [Example 85, 1-(4-Fluoro-phenyl)-3-{3-[6-(2-methoxy-phenyl)-pyrimidin-4-ylamino]-benzyl}-urea] |
| < 0.1 | CC(C)Oc1cc(F)ccc1-c1cc(Nc2cccc(Cn3cnc4ccccc43)c2)ncn1 [Example 81, (3-Benzoimidazol-1-ylmethyl-phenyl)-[6-(4-fluoro-2-isopropoxy-phenyl)-pyrimidin-4-yl]-amine] |
| < 1 | COc1ccc(-c2cc(Nc3ccc(CNS(C)(=O)=O)cc3)ncn2)cc1 [Example 57, N-{4-[6-(4-Methoxy-phenyl)-pyrimidin-4-ylamino]-benzyl}-methanesulfonamide] |

| IC50 [µM] | Structure (SMILES) |
| --- | --- |
| < 1 | CC(C)Oc1cc(F)ccc1-c1cc(Nc2ccc(Cn3cnc4ccccc43)cc2)ncn1 [Example 88, (4-Benzoimidazol-1-ylmethyl-phenyl)-[6-(4-fluoro-2-isopropoxy-phenyl)-pyrimidin-4-yl]-amine] |
| < 10 | COc1ccccc1-c1cc(Nc2cccc(Cn3ccc4ccccc43)c2)ncn1 [Example 91, (3-Indol-1-ylmethyl-phenyl)-[6-(2-methoxy-phenyl)-pyrimidin-4-yl]-amine] |
| < 0.1 | COc1cccc(F)c1-c1cc(Nc2cccc(Cn3cnc4ccccc43)c2)ncn1 [Example 79, (3-Benzoimidazol-1-ylmethyl-phenyl)-[6-(2-fluoro-6-methoxy-phenyl)-pyrimidin-4-yl]-amine] |
| < 0.1 | COc1cccc(F)c1-c1cc(Nc2cccc(CNS(C)(=O)=O)c2)ncn1 [Example 13, N-{3-[6-(2-Fluoro-6-methoxy-phenyl)-pyrimidin-4-ylamino]-benzyl}-methanesulfonamide] |
| < 1 | COc1ccc(F)cc1-c1cc(Nc2cccc(CNS(C)(=O)=O)c2)ncn1 [Example 9, N-{3-[6-(5-Fluoro-2-methoxy-phenyl)-pyrimidin-4-ylamino]-benzyl}-methanesulfonamide] |
| < 1 | CS(=O)(=O)NCc1ccc(Nc2cc(-c3ccccc3Oc3ccccc3)ncn2)cc1 [Example 40, N-{4-[6-(2-Phenoxy-phenyl)-pyrimidin-4-ylamino]-benzyl}-methanesulfonamide] |
| < 1 | CS(=O)(=O)NCc1ccc(Nc2cc(-c3ccccc3OCc3cccc(F)c3)ncn2)cc1 [Example 49, N-(4-{6-[2-(3-Fluoro-benzyloxy)-phenyl]-pyrimidin-4-ylamino}-benzyl)-methanesulfonamide] |
| < 1 | Oc1ccc(-c2cc(Nc3cccc(CNc4nc5ccccc5[nH]4)c3)ncn2)cc1 [Example 78, 4-(6-{3-[(1H-Benzoimidazol-2-ylamino)-methyl]-phenylamino}-pyrimidin-4-yl)-phenol] |
| < 1 | Oc1ccc(-c2cc(Nc3ccc(Cn4cnc5ccccc54)cc3)ncn2)cc1 [Example 89, 4-[6-(4-Benzoimidazol-1-ylmethyl-phenylamino)-pyrimidin-4-yl]-phenol] |
| < 10 | CS(=O)(=O)NCc1ccc(Nc2cc(-c3ccccc3)ncn2)cc1 [Example 45, N-[4-(6-Phenyl-pyrimidin-4-ylamino)-benzyl]-methanesulfonamide] |
| < 1 | Oc1ccc(-c2cc(Nc3cccc(Cn4cnc5ccccc54)c3)ncn2)cc1 [Example 82, 4-[6-(3-Benzoimidazol-1-ylmethyl-phenylamino)-pyrimidin-4-yl]-phenol] |
| < 1 | COc1cccc(-c2cc(Nc3ccc(CNS(C)(=O)=O)cc3)ncn2)c1OC [Example 55, N-{4-[6-(2,3-Dimethoxy-phenyl)-pyrimidin-4-ylamino]-benzyl}-methanesulfonamide] |
| < 10 | CS(=O)(=O)NCc1ccc(Nc2cc(-c3cccnc3)ncn2)cc1 [Example 52, N-[4-(6-Pyridin-3-yl-pyrimidin-4-ylamino)-benzyl]-methanesulfonamide] |
| < 0.1 | COc1ccccc1-c1cc(Nc2cccc(CN3C(=O)c4ccccc4C3=O)c2)ncn1 [Example 68, 2-{3-[6-(2-Methoxy-phenyl)-pyrimidin-4-ylamino]-benzyl}-isoindole-1,3-dione] |
| < 1 | COc1ccccc1-c1cc(Nc2cccc(CNS(=O)(=O)Cc3ccccc3)c2)ncn1 [Example 74, N-{3-[6-(2-Methoxy-phenyl)-pyrimidin-4-ylamino]-benzyl}-C-phenyl-methanesulfonamide] |
| < 10 | COc1ccc(C)cc1-c1cc(Nc2cccc(CNS(C)(=O)=O)c2)ncn1 [Example 26, N-{3-[6-(2-Methoxy-5-methyl-phenyl)-pyrimidin-4-ylamino]-benzyl}-methanesulfonamide] |
| < 0.1 | CCOc1ccccc1-c1cc(Nc2ccc(CNS(C)(=O)=O)cc2)ncn1 [Example 37, N-{4-[6-(2-Ethoxy-phenyl)-pyrimidin-4-ylamino]-benzyl}-methanesulfonamide] |
| < 1 | COc1ccccc1-c1cc(Nc2cccc(CNS(=O)(=O)c3c(Cl)cccc3Cl)c2)ncn1 [Example 70, 2,6-Dichloro-N-{3-[6-(2-methoxy-phenyl)-pyrimidin-4-ylamino]-benzyl}-benzenesulfonamide] |
